In patent US20200246308A1, “SYNERGISTIC COMBINATIONS OF UROLITHINS A AND B FOR IMPROVING COGNITIVE CAPACITY OR COGNITIVE FUNCTION” (Natreon, Inc., priority 2018, published 2020):

What was measured:
[1] = molecular target: T1, Human recombinant AChE (Homo sapiens, UniProt P22303); test: In-vitro human recombinant AChE inhibition assay, Ellman method; assay type: biochemical; conditions: Table 10
T1 construct: purchased Sigma Aldrich
Description: In-vitro human recombinant AChE inhibition assay: Procedure described by Ellman et al. was used after some modification for AChE inhibition assay. Human recombinant AChE was purchased from Sigma Aldrich (St. Louis, Mo.). Acetylthiocholine iodide (ATCI), 5,5′-dithiobis (2-nitrobenzoic acid) (DTNB-Ellman's reagent) were purchased from Himedia Pvt. Ltd. (New Delhi, India). Donepezil was used as positive control groups. Tris-HCl buffer (pH 8) was used to perform the in-vitro assay.
Further, substrate i.e. ATCI (15 mM, 30 μL) was added and it was incubated for additional 30 min. Finally 160 μL (1.5 mM) of DTNB was added and the absorbance was recorded at 415 nm using Epoch microplate reader (BioTek). The IC50 value was calculated using absorbance obtained from the test and standard compounds. The assay was performed in triplicate and in three independent runs (see Equation 1).

[2] = system: scopolamine induced amnesic rat model; test: Y-maze test, scopolamine induced amnesic rat model (Example 9A); assay type: in vivo, Male Wistar rats; conditions: scopolamine 1 mg/kg i.p.; for Curiosity behavior (total arm entries), trial-1 and trial-2 / Spatial recognition memory (known vs novel arm entries %), trial-2: p.o. 7 days: B 50, A 50, B:A 10:50 and 50:50 mg/kg; for Curiosity behavior (total arm entries), trial-1 and trial-2: Shilajit 25 mg/kg b.i.d; for Coping behavior to novel environment (% time in novel arm), trial-2: p.o. 7 days: B 50, A 50, B:A 10:50 and 50:50, Shilajit 50 mg/kg
Procedure: The experiment was conducted in accordance with the Principles of laboratory animal care. Male Wistar rats (200-250 g) were purchased from the Central Animal House, Institute of Medical Sciences, Banaras Hindu University (BHU), Varanasi, India. Experiments on animals were approved by the Institutional Animal Ethics Committee of BHU, Varanasi, India. The animals were housed in polypropylene cages under controlled environmental conditions of temperature of 25±1° C. and 45-55% relative humidity and a 12:12 h light/dark cycle. The experimental animals had free access to commercial rat feed and water ad libitum during the experiment. Animals were acclimatized for at least one week before using them for experiments and exposed only once to the experiment.
Rats were randomly allocated into eight study groups containing six in each group (n=6), as follows:
Drug solution was freshly prepared in 0.3% CMC and administered by oral gavage once a day, for a period of 7 days. Briefly, the whole experiment was conducted for 8 days. Scopolamine (1 mg/kg), a muscarinic receptor antagonist, was dissolved in normal saline (0.9% NaCl) and administered intraperitoneally 1 h after drugs administration on seventh day.
Assessment of short term memory by Y maze test paradigm. The Y-maze test was performed essentially to assess spatial recognition memory, general exploratory behavior and anxiety-like behavior by following the standard protocol (Dellu, F., Mayo, W., Cherkaoui, J., Le Moal, M., Simon, H., “A two-trial memory task with automated recording: study in young and aged rats,” Brain Res. (1992) 588: 132-139). The Y-maze apparatus consists of three identical arms (50 cm long, 16 cm wide and 32 cm high) at 120° angles to each other, radiating out from a central point. Visual cues made from colored construction paper and laboratory glassware were placed around the perimeter of the maze and above the top of the black plexiglass sides and these cues were not repeated for each test to maintain novelty to the animals. The novel arm of the Y-maze was blocked and rats were allowed to visit the other two arms of the maze for 15 min. Four hours after the first phase, animals had free access to all three arms for 5 min. The number of entries in each arm was recorded for a 5-min period. The dependent variables such as the total number of entries in all arms (for the 5 min of trial 1 and 2), the % entries in known and novel arms for the 5 min period of trial 2 and the percentage of ratio of time spent in novel arm to time spent in all the arms and in the center of the apparatus during trial 2 were measured. The total number of entries in all arms (for the 5 min of trial 1 and 2) is indicative of general exploration attitude (curiosity) and the % entries in known versus novel arm for the 5 min period of trial 2 is considered as a measure of arm discrimination (spatial recognition memory). Coping strategy or behavior to novel environment was estimated by the percentage of time spent in novel arm to time spent in all arms and in the center of the apparatus during trial 2. The decrease in the coping behavior to novel environment was considered as increase in anxiety-like behavior. An arm entry was counted when the head and two front paws were inside the arm, and duration of an arm visit was ended when the head and two front paws were outside the arm again.

T1 sequence (P22303 32-614): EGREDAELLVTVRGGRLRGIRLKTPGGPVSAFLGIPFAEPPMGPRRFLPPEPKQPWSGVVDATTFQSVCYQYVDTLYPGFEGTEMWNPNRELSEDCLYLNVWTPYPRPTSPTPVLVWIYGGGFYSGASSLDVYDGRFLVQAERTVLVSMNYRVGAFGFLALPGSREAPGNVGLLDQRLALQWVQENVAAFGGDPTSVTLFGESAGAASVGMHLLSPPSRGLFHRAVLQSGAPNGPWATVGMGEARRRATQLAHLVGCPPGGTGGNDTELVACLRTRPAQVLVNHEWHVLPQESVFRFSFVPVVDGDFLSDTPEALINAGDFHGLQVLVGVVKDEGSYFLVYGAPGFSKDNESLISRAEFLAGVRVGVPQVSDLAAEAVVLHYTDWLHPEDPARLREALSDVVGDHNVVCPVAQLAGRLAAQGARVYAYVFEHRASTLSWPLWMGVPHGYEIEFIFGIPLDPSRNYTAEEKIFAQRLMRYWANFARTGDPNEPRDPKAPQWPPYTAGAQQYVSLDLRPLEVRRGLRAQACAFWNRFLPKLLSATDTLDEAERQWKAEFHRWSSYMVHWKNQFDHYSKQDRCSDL

## O=c1oc2cc(O)ccc2c2ccc(O)cc12 [Urolithin A, 3,8-dihydroxy-dibenzo-alpha-pyrone]
[1]
  IC50: 410.50 ± 38.52 µg/mL
[2]
  Curiosity behavior (total arm entries), trial-1 and trial-2: attenuated the scopolamine induced decrease in curiosity behavior
  Spatial recognition memory (known vs novel arm entries %), trial-2: significantly reversed the scopolamine induced failed the discrimination behavior but not similar as to the vehicle group
  Coping behavior to novel environment (% time in novel arm), trial-2: attenuated the scopolamine-induced decrease in coping strategy to a novel environment but not similar to that vehicle group

## O=c1oc2cc(O)ccc2c2ccccc12 [Urolithin B, 3-hydroxy-dibenzo-alpha-pyrone]
[1]
  IC50: 272.67 ± 42.11 µg/mL
[2]
  Curiosity behavior (total arm entries), trial-1 and trial-2: attenuated the scopolamine induced decrease in curiosity behavior
  Spatial recognition memory (known vs novel arm entries %), trial-2: significantly reversed the scopolamine induced failed the discrimination behavior but not similar as to the vehicle group
  Coping behavior to novel environment (% time in novel arm), trial-2: attenuated the scopolamine-induced decrease in coping strategy to a novel environment but not similar to that vehicle group
